We go through 30 compounds from patent US8389557B2, “Triazole derivatives useful as Axl inhibitors” (Rigel Pharmaceuticals, Inc., priority 2005, dated 2013).

The target of the test is T1, Axl (Homo sapiens, UniProt P30530).
T1 construct: endogenous in cells; host or cells: HeLa cells
T1 sequence (P30530 26-894): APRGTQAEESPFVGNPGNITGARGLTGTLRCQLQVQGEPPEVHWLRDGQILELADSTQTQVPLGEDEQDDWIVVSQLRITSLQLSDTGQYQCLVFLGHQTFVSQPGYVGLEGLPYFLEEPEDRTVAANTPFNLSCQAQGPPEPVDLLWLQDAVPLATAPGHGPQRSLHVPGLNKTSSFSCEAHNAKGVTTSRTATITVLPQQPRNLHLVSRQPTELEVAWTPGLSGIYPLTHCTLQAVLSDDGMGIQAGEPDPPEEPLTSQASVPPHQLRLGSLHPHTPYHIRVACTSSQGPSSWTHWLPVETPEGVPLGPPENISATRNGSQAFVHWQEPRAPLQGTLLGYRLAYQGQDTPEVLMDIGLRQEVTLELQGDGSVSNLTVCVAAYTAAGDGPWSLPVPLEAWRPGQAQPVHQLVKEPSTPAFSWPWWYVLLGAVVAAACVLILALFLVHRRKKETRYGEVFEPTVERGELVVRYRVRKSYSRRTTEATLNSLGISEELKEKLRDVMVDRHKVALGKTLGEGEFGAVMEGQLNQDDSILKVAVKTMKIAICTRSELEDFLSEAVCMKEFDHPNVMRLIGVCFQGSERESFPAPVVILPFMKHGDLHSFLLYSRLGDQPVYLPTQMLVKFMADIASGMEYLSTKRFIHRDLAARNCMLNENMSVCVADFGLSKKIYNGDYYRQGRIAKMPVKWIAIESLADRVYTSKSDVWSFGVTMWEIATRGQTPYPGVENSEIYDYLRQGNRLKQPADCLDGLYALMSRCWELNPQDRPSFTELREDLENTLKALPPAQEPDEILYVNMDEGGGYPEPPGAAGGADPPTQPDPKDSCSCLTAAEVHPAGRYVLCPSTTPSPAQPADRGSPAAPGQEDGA
The test is described as follows: Phospho-Akt in-cell Western assay (inhibition of Axl activity). It is filed as cell-based. The essentials: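 HeLa cells on poly-L-lysine, starved 24 h in 0.5% FCS DMEM with Axl/Fc 500 ng/mL, pre-treated with compound 1 h at 37° C. Axl stimulated 5 min by anti-Axl/anti-mouse antibody cross-linking. Fixed cells probed with anti-phospho-Akt and HRP secondary, chemiluminescence read.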

Where [1] appears, read: inhibition of Axl activity, phospho-Akt in-cell Western assay, Table 1.
[2] abbreviates: Table 3, Hela cells, Axl antibody cross-linking stimulation, phospho-Akt chemiluminescence.
[3] abbreviates: inhibition of Axl activity, Table 1.
Setting [4] is: Table 2, Hela cells, Axl antibody cross-linking stimulation, phospho-Akt chemiluminescence.
[5] abbreviates: Table 7, Hela cells, Axl antibody cross-linking stimulation, phospho-Akt chemiluminescence.
Setting [6] is: Table 5, Hela cells, Axl antibody cross-linking stimulation, phospho-Akt chemiluminescence.

For orientation: IC50 means the concentration that inhibits the measured activity by half. `CN1CCN(c2ccc(Nc3nc(N)n(C(=O)c4ccc(OC(C)(C)C)cc4)n3)cc2)CC1` [compound 357, 5-amino-1-(4-(tert-butoxy)phenyl)carbonyl-3-[4-(4-methylpiperazin-1-yl)phenylamino]-1H-1,2,4-triazole] came in with a half-inhibitory concentration (IC50) under setting [1] below 1 µM.
Consider `CN(C)c1ccc(C(=O)n2nc(Nc3ccc(OCCN4CC[C@H](F)C4)cc3)nc2N)cc1` [compound 385, 5-amino-1-(4-(dimethylamino)phenyl)carbonyl-3-[4-[2-((S)-3-fluoropyrrolidin-1-yl)ethoxy]phenylamino]-1H-1,2,4-triazole], for which the IC50 under setting [1] was below 1 µM.
Under setting [2], `Nc1nc(Nc2ccc(OCCN3CCCC3)cc2)nn1C(=O)c1csnn1` [compound 312, 5-amino-1-(1,2,3-thiadiazol-4-yl)carbonyl-3-[4-[2-(pyrrolidin-1-yl)ethoxy]phenylamino]-1H-1,2,4-triazole] displayed an IC50 above 20 µM.
The compound `COc1ccc(Nc2nc(N)n(C(=O)c3ccc(OC(C)C)cc3)n2)cc1` [compound 117, 5-amino-1-(4-(iso-propoxy)phenyl)carbonyl-3-[4-(methoxy)phenylamino]-1H-1,2,4-triazole] yielded an IC50 under setting [3] of 1 to 10 µM.
`CC(C)Oc1ccc(C(=O)n2nc(Nc3ccc(OCCN(C)C)cc3)nc2N)cc1` [compound 85, 5-amino-3-[4-[2-(dimethylamino)ethoxy]phenylamino]-1-(4-(iso-propoxy)phenyl)carbonyl-1H-1,2,4-triazole] came in with an IC50 under setting [1] below 1 µM.
For the compound `CC(C)Oc1ccc(C(=O)n2nc(N)nc2Nc2ccc(OCCN3CCCC3)cc2)cc1` [compound 191, 3-amino-1-(4-iso-propoxyphenyl)carbonyl-5-[4-[2-(pyrrolidin-1-yl)ethoxy]phenylamino]-1H-1,2,4-triazole], the IC50 under setting [4] lay within 1 to 10 µM.
On the same count and under the same terms, as for `Cc1ccc(C(=O)n2nc(N)nc2Nc2ccc(OC(C)C)cc2)cc1` [compound 56, 3-amino-5-[4-(iso-propoxy)phenylamino]-1-(4-(methyl)phenyl)carbonyl-1H-1,2,4-triazole], the figure is above 20 µM.
For `Nc1nc(Nc2ccc(OCCN3CCCC3)cc2)nn1C(=O)c1c[nH]c2ccccc12` [compound 366, 5-amino-1-(1H-indol-3-yl)carbonyl-3-[4-[2-(pyrrolidin-1-yl)ethoxy]phenylamino]-1H-1,2,4-triazole], the IC50 under setting [2] lay in the range of 1 to 10 µM.
As to `CC(=O)N(C)c1ccc(Nc2nc(N)n(C(=O)NC3CCCC3)n2)cc1` [compound 177, 3-[4-(acetyl(methyl)amino)phenyl]amino-5-amino-N-cyclopentyl-1H-1,2,4-triazole-1-carboxamide], the IC50 under setting [5] is above 20 µM.
On the same count and under the same terms, as for `CC(=O)N(C)c1ccc(Nc2nc(N)n(C(=O)NC3CCCCC3)n2)cc1` [compound 185, 3-[4-(acetyl(methyl)amino)phenyl]amino-5-amino-N-cyclohexyl-1H-1,2,4-triazole-1-carboxamide], the figure is above 20 µM.
As to `Nc1nc(Nc2ccc(OCCN3CCCC3)cc2)nn1C(=O)c1ccc(N2CCS(=O)(=O)CC2)cc1` [compound 400, 5-amino-1-(4-(1,1-dioxo-thiomorpholin-4-yl)phenyl)carbonyl-3-[4-[2-(pyrrolidin-1-yl)ethoxy]phenylamino]-1H-1,2,4-triazole], the IC50 under setting [1] was below 1 µM.
`COc1ccc(Nc2nc(N)n(C(=O)Nc3ccc(Cl)cc3)n2)cc1` [compound 172, 5-amino-N-(4-chlorophenyl)-3-[4-(methoxy)phenylamino]-1H-1,2,4-triazole-1-carboxamide] came in with an IC50 under setting [5] above 20 µM.
As to `COc1cc(OC)cc(C(=O)n2nc(Nc3ccc(OCCN4CCCCC4)cc3)nc2N)c1` [compound #19, 5-Amino-1-(3,5-(dimethoxy)phenyl)carbonyl-3-[4-[2-(piperidin-1-yl)ethoxy]phenylamino]-1H-1,2,4-triazole], the IC50 under setting [1] is below 1 µM.
The same measure, in the same setting: as for `COc1cc(Nc2nc(N)n(C(=O)c3cccc(N4CCOCC4)c3)n2)ccc1OCCN1CCCC1` [compound 344, 5-amino-1-(3-(morpholin-4-yl)phenyl)carbonyl-3-[3-methoxy-4-[2-(pyrrolidin-1-yl)ethoxy]phenylamino]-1H-1,2,4-triazole], the figure is below 1 µM.
Turning to `COc1ccc(C(=O)n2nc(Nc3ccc4c(c3)OCCO4)nc2N)cc1` [compound 102, 5-amino-3-(1,4-benzodioxan-6-yl)amino-1-(4-(methyloxy)phenyl)carbonyl-1H-1,2,4-triazole], the IC50 under setting [3] lay in the range of 1 to 10 µM.
Same read-out and setting: then `CCOc1ccc(Nc2nc(N)n(C(=O)c3ccc(OC(C)C)cc3)n2)cc1` [compound 118, 5-amino-3-[4-(ethoxy)phenylamino]-1-(4-(iso-propoxy)phenyl)carbonyl-1H-1,2,4-triazole], with 1 to 10 µM; and `Cc1ccccc1C(=O)n1nc(Nc2ccc3c(c2)OCCO3)nc1N` [compound 97, 5-amino-3-(1,4-benzodioxan-6-yl)amino-1-(2-(methyl)phenyl)carbonyl-1H-1,2,4-triazole], with 10 to 20 µM.
Turning to `Nc1nc(Nc2ccc(OCCN3CCCC3)c(F)c2)nn1C(=O)c1ccccc1` [compound 308, 5-amino-1-(phenyl)carbonyl-3-[3-fluoro-4-[2-(pyrrolidin-1-yl)ethoxy]phenylamino]-1H-1,2,4-triazole], under setting [1], the IC50 is below 1 µM.
As for `Cc1ccc(C(=O)n2nc(Nc3ccc(OC(C)C)cc3)nc2N)cc1` [compound 55, 5-amino-3-[4-(iso-propoxy)phenylamino]-1-(4-(methyl)phenyl)carbonyl-1H-1,2,4-triazole], the IC50 under setting [3] is below 1 µM.
In turn, `CCOC(=O)c1cc2cc(Nc3nc(N)n(C(=O)c4cccc(OC(C)C)c4)n3)ccc2o1` [compound 103, 5-amino-3-(2-(ethoxycarbonyl)benzofuran-5-yl)amino-1-(3-(iso-propoxy)phenyl)carbonyl-1H-1,2,4-triazole] gave an IC50 under setting [6] above 20 µM.
For the compound `COc1cc(Nc2nc(N)n(C(=O)c3ccc(N4CCOCC4)cc3)n2)ccc1OCCN1CCCC1` [compound 343, 5-amino-1-(4-(morpholin-4-yl)phenyl)carbonyl-3-[3-methoxy-4-[2-(pyrrolidin-1-yl)ethoxy]phenylamino]-1H-1,2,4-triazole], the half-inhibitory concentration (IC50) under setting [1] was below 1 µM.
Under setting [3], `Nc1nc(Nc2ccc3c(c2)OCCO3)nn1C(=O)c1cccc(OCCC2OCCO2)c1` [compound 210] returned an IC50 of 1 to 10 µM.
On to `Nc1nc(Nc2ccc3c(c2)OCCO3)nn1C(=O)c1cccc(F)c1` [compound 105, 5-amino-3-(1,4-benzodioxan-6-yl)amino-1-(3-(fluoro)phenyl)carbonyl-1H-1,2,4-triazole], for which the IC50 under setting [3] was above 20 µM.
Still for that read-out and setting: then `Cc1cc(C(=O)n2nc(Nc3ccc4c(c3)OCCO4)nc2N)ccc1F` [compound 242, 5-amino-3-(1,4-benzodioxan-6-yl)amino-1-[(4-fluoro-3-methyl)phenyl]carbonyl-1H-1,2,4-triazole], with above 20 µM.
`Cc1cccc(C(=O)n2nc(Nc3ccc4snc(C)c4c3)nc2N)c1` [compound 260, 5-amino-3-(3-methyl-1,2-benzisothiazol-5-yl)amino-1-(3-methylphenyl)carbonyl-1H-1,2,4-triazole]: the IC50 under setting [6] is above 20 µM.
Compound `CC(=O)Nc1ccc(C(=O)n2nc(Nc3ccc4c(c3)OCCO4)nc2N)cc1` [compound 246, 1-[(4-Acetylamino)phenyl]carbonyl-5-amino-3-(1,4-benzodioxan-6-yl)-amino-1H-1,2,4-triazole] yielded an IC50 under setting [3] of 1 to 10 µM.
Turning to `Nc1nc(Nc2ccc(OCCN3CCCCC3)cc2)n(C(=O)NC2CCCCC2)n1` [compound 189, 3-amino-N-cyclohexyl-5-[4-[2-(piperidin-1-yl)ethoxy]phenylamino]-1H-1,2,4-triazole-1-carboxamide], under “Table 8, Hela cells, Axl antibody cross-linking stimulation, phospho-Akt chemiluminescence”, the IC50 fell in the range of 1 to 10 µM.
`Cc1ccc(C(=O)n2nc(Nc3ccccc3O)nc2N)cc1` [compound 211, 5-amino-3-[2-(hydroxyl)phenylamino]-1-(4-methylphenyl)carbonyl-1H-1,2,4-triazole]: the IC50 under setting [3] is above 20 µM.
For `Cc1cccc(NC(=O)n2nc(Nc3ccc(OCCN4CCCCC4)cc3)nc2N)c1` [compound 29, 5-amino-N-(3-methylphenyl)-3-[4-[2-(piperidin-1-yl)ethoxy]phenylamino]-1H-1,2,4-triazole-1-carboxamide], the IC50 under setting [5] was below 1 µM.
Regarding `CNC(=O)COc1cccc(Nc2nc(N)n(C(=O)c3cccc(C)c3)n2)c1` [compound 146, 5-amino-3-[3-(methylaminocarbonylmethoxy)phenylamino]-1-(3-(methyl)phenyl)carbonyl-1H-1,2,4-triazole], the IC50 under setting [3] was 1 to 10 µM.
